Results published in PubChem BioAssay AID256 (DTP/NCI, 2004).
Values joined by “and” are separate entries in the source; they are usually repeats but may differ in a detail not shown here. Equal entries are not always repeated. Toxic doses and inconclusive results are not listed.

Test system: CD2F1 mice, L1210 leukemia ip, survival T/C
Experiment: NCI In Vivo Anticancer Drug Screen. Data for tumor model L1210 Leukemia (intraperitoneal) in CD2F1 (CDF1) mice
Conditions: higher = longer survival
In short: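 Read-out first: treated-group measurement over vehicle-control measurement, expressed as a ratio. Animals bore a transplanted tumor line and were dosed with compound or vehicle.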

[1] = endpoint: mean survival time, dose: 100.0 mg/kg/injection, schedule: Q01DX009 (ip), vehicle: saline with Tween-80
[2] = endpoint: mean survival time, dose: 100.0 mg/kg/injection, schedule: Q04DX003 (ip), vehicle: saline with Tween-80
[3] = endpoint: mean survival time, dose: 200.0 mg/kg/injection, schedule: Q01DX009 (ip), vehicle: saline with Tween-80
[4] = endpoint: mean survival time, dose: 200.0 mg/kg/injection, schedule: Q04DX003 (ip), vehicle: saline with Tween-80
[5] = endpoint: mean survival time, dose: 400.0 mg/kg/injection, schedule: Q01DX009 (ip), vehicle: saline with Tween-80
[6] = endpoint: mean survival time, dose: 400.0 mg/kg/injection, schedule: Q04DX003 (ip), vehicle: saline with Tween-80

In the case of `CCOC(=O)N(N=O)c1ccc2c(c1)Cc1cc([N+](=O)[O-])ccc1-2`, the T/C (endpoint: mean survival time, dose: 100.0 mg/kg/injection, schedule: Q01DX001 (ip), vehicle: carboxymethylcellulose (CMC)) is reported as 105 % of control, the T/C (endpoint: mean survival time, dose: 200.0 mg/kg/injection, schedule: Q01DX001 (ip), vehicle: carboxymethylcellulose (CMC)) is reported as 105 % of control and the T/C (endpoint: mean survival time, dose: 400.0 mg/kg/injection, schedule: Q01DX001 (ip), vehicle: carboxymethylcellulose (CMC)) is reported as 97 % of control.

`O=Cc1cc2c(cc1Br)OCO2` was tested, and the T/C [1] was 98 % of control, the T/C [2] was 98 % of control and the T/C [3] was 97 % of control. For the same compound, the T/C [4] was 101 % of control, the T/C [5] was 92 % of control and the T/C [6] was 98 % of control.

In the case of `O=C1OC2C(Cl)CC(Cl)CC2C=C1c1cccc([N+](=O)[O-])c1` (configuration not stated), the T/C [1] is reported as 90 % of control, the T/C (endpoint: mean survival time, dose: 100.0 mg/kg/injection, schedule: Q04DX002 (ip), vehicle: saline with Tween-80) is reported as 90 % of control and the T/C [3] is reported as 94 % of control. The T/C (endpoint: mean survival time, dose: 200.0 mg/kg/injection, schedule: Q04DX002 (ip), vehicle: saline with Tween-80) was 90 % of control, the T/C [5] was 105 % of control and the T/C (endpoint: mean survival time, dose: 400.0 mg/kg/injection, schedule: Q04DX002 (ip), vehicle: saline with Tween-80) was 94 % of control.

`Cc1nc2ccccn2c(=O)c1Br` was tested, and the T/C (endpoint: mean survival time, dose: 50.0 mg/kg/injection, schedule: Q01DX001 (ip), vehicle: saline) was 104 % of control, the T/C (endpoint: mean survival time, dose: 100.0 mg/kg/injection, schedule: Q01DX001 (ip), vehicle: saline) was 104 % of control and the T/C (endpoint: mean survival time, dose: 200.0 mg/kg/injection, schedule: Q01DX001 (ip), vehicle: saline) was 104 % of control.

For `Cn1nc(CC#N)c2c(N)ncnc21`, the T/C (endpoint: mean survival time, dose: 12.5 mg/kg/injection, schedule: Q01DX005 (ip), vehicle: water) was 96 % of control, the T/C (endpoint: mean survival time, dose: 25.0 mg/kg/injection, schedule: Q01DX005 (ip), vehicle: water) was 93 % of control and the T/C (endpoint: mean survival time, dose: 50.0 mg/kg/injection, schedule: Q01DX005 (ip), vehicle: water) was 92 % of control. The T/C (endpoint: mean survival time, dose: 100.0 mg/kg/injection, schedule: Q01DX005 (ip), vehicle: water) was 88 % of control and the T/C (endpoint: mean survival time, dose: 200.0 mg/kg/injection, schedule: Q01DX005 (ip), vehicle: water) was 91 % of control.

`CCCCCCCCC(=O)N(C)OC` was tested, and the T/C (endpoint: mean survival time, dose: 50.0 mg/kg/injection, schedule: Q01DX009 (ip), vehicle: saline with Tween-80) was 102 % of control and the T/C [1] was 104 % of control.

With `NC(=S)N/N=C/c1ccccc1N` the T/C (endpoint: mean survival time, dose: 100.0 mg/kg/injection, schedule: Q04DX003 (ip), vehicle: acetone) was 103 % of control, the T/C (endpoint: mean survival time, dose: 200.0 mg/kg/injection, schedule: Q04DX003 (ip), vehicle: acetone) was 97 % of control and the T/C (endpoint: mean survival time, dose: 400.0 mg/kg/injection, schedule: Q04DX003 (ip), vehicle: acetone) was 104 % of control.

For `Nc1ccc2scnc2c1`, the T/C [2] was 108 % of control, the T/C [4] was 96 % of control and the T/C [6] was 101 % of control.

For `NC(COC(c1ccccc1)(c1ccccc1)c1ccccc1)C(=O)O` (configuration not stated), the T/C (endpoint: mean survival time, dose: 25.0 mg/kg/injection, schedule: Q01DX009 (ip), vehicle: saline) was 103 % of control, the T/C (endpoint: mean survival time, dose: 50.0 mg/kg/injection, schedule: Q01DX009 (ip), vehicle: saline) was 113 % of control and the T/C (endpoint: mean survival time, dose: 200.0 mg/kg/injection, schedule: Q01DX009 (ip), vehicle: saline) was 150 % of control. For the same compound, the T/C (endpoint: mean survival time, dose: 300.0 mg/kg/injection, schedule: Q01DX009 (ip), vehicle: saline) was 122 % of control and the T/C (endpoint: mean survival time, dose: 400.0 mg/kg/injection, schedule: Q01DX009 (ip), vehicle: saline) was 111 % of control.

`CC(=O)c1c(O)c(C)c(O)c2c1OC1=CC(=O)C(C(C)=O)C(=O)C12C` (configuration not stated) was tested, and the T/C (endpoint: mean survival time, dose: 25.0 mg/kg/injection, schedule: Q01DX009 (ip), vehicle: Klucel (hydroxypropylcellulose) (HPC)) was 93 % of control, the T/C (endpoint: mean survival time, dose: 50.0 mg/kg/injection, schedule: Q01DX009 (ip), vehicle: Klucel (hydroxypropylcellulose) (HPC)) was 93 % of control and the T/C (endpoint: mean survival time, dose: 100.0 mg/kg/injection, schedule: Q01DX009 (ip), vehicle: Klucel (hydroxypropylcellulose) (HPC)) was 96 % of control.

In the case of `c1ccc2c(c1)[As]=c1ccccc1=[As]2` (configuration not stated), the T/C (endpoint: median survival time, dose: 1.5 mg/kg/injection, schedule: Q01DX009 (ip), vehicle: saline with Tween-80) is reported as 108 % of control, the T/C (endpoint: median survival time, dose: 3.0 mg/kg/injection, schedule: Q01DX009 (ip), vehicle: saline with Tween-80) is reported as 101 % of control and the T/C (endpoint: median survival time, dose: 6.0 mg/kg/injection, schedule: Q01DX009 (ip), vehicle: saline with Tween-80) is reported as 102 % of control and 104 % of control. For the same compound, the T/C (endpoint: median survival time, dose: 12.0 mg/kg/injection, schedule: Q01DX009 (ip), vehicle: saline with Tween-80) was 113 % of control and 109 % of control, the T/C (endpoint: median survival time, dose: 24.0 mg/kg/injection, schedule: Q01DX009 (ip), vehicle: saline with Tween-80) was 106 % of control and the T/C (endpoint: median survival time, dose: 48.0 mg/kg/injection, schedule: Q01DX009 (ip), vehicle: saline with Tween-80) was 100 % of control.

`CCCCCCCCCCCCCCCCCC[n+]1ccc(C(=O)c2ccccc2)cc1` was tested, and the T/C (endpoint: mean survival time, dose: 9.38 mg/kg/injection, schedule: Q01DX001 (ip), vehicle: other) was 109 % of control and the T/C (endpoint: mean survival time, dose: 18.75 mg/kg/injection, schedule: Q01DX001 (ip), vehicle: other) was 110 % of control.
